Where two headings read alike, the source gives them in different places.
Tests used:
[1] = Chromosomal aberration test
[2] = Two-week repeated oral toxicological investigation in rats; format: in vivo, rat; details: rats (male, female), 2 weeks, dose figure missing ("a dose of mg/kg")
From the text: (§1) The compound of Example 5 was repeatedly administered orally to rats (male, female) over the period of 2 weeks to perform a toxicological investigation.

5-HT4 receptors = molecular target: T1, 5-HT4 receptors (Rattus norvegicus, UniProt Q62758); assay: Relaxation of carbachol-contracted rat oesophageal tunica muscularis mucosae; format: cell-based
T1 construct: from tissue; host or cells: rat oesophageal tunica muscularis mucosae
T1 sequence (Q62758 whole entry): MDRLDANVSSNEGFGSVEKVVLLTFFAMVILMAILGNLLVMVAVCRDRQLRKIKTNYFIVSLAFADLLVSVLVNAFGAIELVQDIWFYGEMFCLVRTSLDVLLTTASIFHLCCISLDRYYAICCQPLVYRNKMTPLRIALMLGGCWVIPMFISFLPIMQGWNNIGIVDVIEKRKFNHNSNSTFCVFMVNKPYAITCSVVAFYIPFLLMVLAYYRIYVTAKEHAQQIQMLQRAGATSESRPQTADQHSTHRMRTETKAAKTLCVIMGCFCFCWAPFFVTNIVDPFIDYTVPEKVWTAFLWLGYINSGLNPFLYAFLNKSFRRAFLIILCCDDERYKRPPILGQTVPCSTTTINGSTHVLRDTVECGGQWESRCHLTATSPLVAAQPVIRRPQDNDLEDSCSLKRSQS
Method: The agonistic activity of oxazabicyclo derivatives and Mosapride on 5-HT4 receptors was determined by the procedure mentioned in Naunyn-Schmiedeberg's Arch Pharmacol (1991) 343:439-446.
The rat oesophageal tunica muscularis mucosae were suspended in organ both containing Krebs-Henseleit solution aerated with a mixed gas (95% O2, 5% CO2) and contracted with carbachol (1×10^-6 M). After the contraction was stabilized, the cumulative administration of the compounds was performed to determine the relaxation of the rat oesophagus pre-contracted with carbachol. The concentration (ED50) to cause 50% relaxation of the carbachol-induced contraction was measured. The result is expressed in terms of -log ED50 and shown in the following table in which higher numerical value indicates higher activity.

gastric-emptying = assay: Gastric-emptying promoting action (semi-solid test meal, fasted rats); format: in vivo, rat; details: relative to distilled water group (C/D×100)
Method: The present compounds were evaluated for the gastrointestinal prokinetic action, employing as an index the gastric-emptying promoting action. Fasted rats were orally given the test compound or distilled water. After 60 minutes, 3 ml of a test meal (a semi-solid food) was given into stomach by means of a probe. After 60 minutes, animals were sacrificed and stomach was excised and weighed. After washing out the gastric content, the stomach was again weighed to calculate the gastric content amount. The results were shown in the following table by calculating the gastric emptying rate (C) from the weight of the test meal given (A) and the weight of the test meal retained in the stomach (B), and expressing in terms of the gastric-emptying promoting rate to the gastric-emptying rate of the distilled water-given group(D).
Gastric-emptying rate(C)=(A-B)/A×100
Gastric-emptying promoting rate=C/D×100

Micronucleus test = assay: Micronucleus test
From the text: as §1

5-HT4 receptor = 5-HT4 receptor (Cavia porcellus, UniProt O70528); assay: Increase in contraction height of electrically stimulated longitudinal muscle of isolated guinea pig ileum (LMMP); format: cell-based; parameters: key: +: indicates the increase in the contraction height; -: indicates no effect; details: test concentration 10^-7 M
5-HT4 receptor, sequence (O70528 whole entry): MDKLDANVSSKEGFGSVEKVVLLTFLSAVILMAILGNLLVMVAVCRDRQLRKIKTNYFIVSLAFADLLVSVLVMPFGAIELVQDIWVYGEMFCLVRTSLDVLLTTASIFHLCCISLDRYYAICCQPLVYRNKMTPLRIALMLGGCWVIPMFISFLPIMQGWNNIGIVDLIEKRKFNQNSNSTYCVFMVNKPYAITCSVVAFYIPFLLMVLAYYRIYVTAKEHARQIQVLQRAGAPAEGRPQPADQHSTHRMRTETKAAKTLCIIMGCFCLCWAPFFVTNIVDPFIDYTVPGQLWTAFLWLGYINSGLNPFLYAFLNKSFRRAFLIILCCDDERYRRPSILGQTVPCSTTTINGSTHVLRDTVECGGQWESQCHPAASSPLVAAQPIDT
From the text: Ileum was excised from guinea pigs to prepare longitudinal muscle samples with approximately 2 cm length. The sample was suspended in Krebs-Henseleit liquid bath supplied with a mixed gas (95% O2, 5% CO2) and subjected to electrical stimulation (1 msec, 0.1 Hz) to record contraction force isometrically. The test compounds were. dissolved in distilled water or DMSO and tested at a concentration of 10^-7 M (but 10^-6 M for Compound 11). The results are shown by the presence or absence of the increase in the contraction height by electrical stimulation before administration of the compound, wherein the symbol "+" indicates the increase in the contraction height, while "-" indicates no effect.
Whether or not the action of the above compounds is that via activation of 5-HT4 receptors was investigated using as 5-HT4 receptor antagonist, SDZ 205-557 (2-methoxy-4-amino-5-chlorobenzoic acid 2-(diethylamino)ethyl ester) described in Naunyn-Schmiedeberg's Arch Pharmacol (1992) 345:387-393. Thus, the investigation as to whether SDZ 205-557 can antagonize the increase in the contraction height of the above compounds using the longitudinal muscle preparation of the isolated guinea pig ileum can reveal that such increase in the contraction height is the action via activation of 5-HT4 receptors.

[3] = Reverse mutation test (Ames test)
5-HT3 receptor = molecular target: T2, 5-HT3 receptor (Rattus norvegicus, UniProt P35563); assay: 5-HT3 receptor antagonist activity: inhibition of 2-Me-5-HT-induced reduction in heart rate in anesthetized rats; format: in vivo; details: iv (jugular vein) 5 minutes before 2-Me-5-HT 0.1 mg/kg, read-out: IC50 (the source's name)
T2 construct: from tissue; host or cells: whole anesthetized rat (in vivo); endogenous receptor
T2 sequence (P35563 24-483): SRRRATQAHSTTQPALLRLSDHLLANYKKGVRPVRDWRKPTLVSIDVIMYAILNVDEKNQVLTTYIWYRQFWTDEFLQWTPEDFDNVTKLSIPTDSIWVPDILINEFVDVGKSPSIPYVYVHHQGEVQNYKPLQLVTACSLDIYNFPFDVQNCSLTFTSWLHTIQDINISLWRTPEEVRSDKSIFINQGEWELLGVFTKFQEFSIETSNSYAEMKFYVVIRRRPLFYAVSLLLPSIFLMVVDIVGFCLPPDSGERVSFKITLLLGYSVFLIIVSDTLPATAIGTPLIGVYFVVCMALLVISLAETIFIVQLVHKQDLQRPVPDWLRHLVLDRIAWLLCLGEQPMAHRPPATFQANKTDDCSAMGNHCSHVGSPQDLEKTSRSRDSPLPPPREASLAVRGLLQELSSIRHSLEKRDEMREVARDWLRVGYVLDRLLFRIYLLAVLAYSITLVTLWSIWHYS
Method: For the purpose of studying a receptor selectivity of the present compounds, the 5-HT3 receptor antagonist activity was tested in the following manner. Rats were anesthetized with urethane and heart rate was recorded through femoral artery. The 5-HT3 selective agonist, 2-methyl-5-hydroxytryptamine (2-Me-5-HT) was administered at 0.1 mg/kg through carotid arteries and transient reduction in heart rate was recorded. The test. compounds were administered through jugular vein at 5 minutes before the administration of 2-Me-5-HT, inhibitory rate of reduction in heart rate by the administration of 2-Me-5-HT was calculated and IC50 value was calculated from the inhibitory rate.

gastric motility = assay: Gastric motility after meal in beagle dogs (force transducer, Motility Index); format: in vivo, dog (beagle); details: 60 min after feeding, percentage to MI at 15 minutes before administration
Method: The present compounds were investigated for the gastrointestinal motility activity by the following procedure, by which the gastrointestinal prokinetic action was confirmed.
Beagle dogs inserted with a forced transducer at the anterior wall of stomach were used after a convelescence period of more than one month.
Dogs fasted overnight were given a food (375 g of a dog food) and gastric motility after meal was determined. After 60 minutes of the feeding, the test compounds were intravenously injected and the promoting action on gastric motility after meal was determined. The area under contracting wave forms of gastric motility (Motility Index: MI) was calculated and expressed in terms of percentage to the MI at 15 minutes before the administration of the test compound.

Row | Compound | chromosomal aberration test [1] | toxicological changes [2] | EC50 (5-HT4 receptors) [µM] | Gastric-emptying promoting rate (gastric-emptying; 0.03 mg/kg oral) | Gastric-emptying promoting rate (gastric-emptying; 0.1 mg/kg oral) | Gastric-emptying promoting rate (gastric-emptying; 0.3 mg/kg oral) | micronucleus test (Micronucleus test) | LMMP: presence or absence of the increase in the contraction height by electrical stimulation (5-HT4 receptor) | reverse mutation test (Ames test) [3] | mutagenicity ([3]; overall from Ames, chromosomal aberration and micronucleus tests) | ED50 (5-HT3 receptor) [mg/kg] | MI (Motility Index) (gastric motility; 0.03 mg/kg iv) [%] | MI (Motility Index) (gastric motility; 0.1 mg/kg iv) [%] | MI (Motility Index) (gastric motility; 0.3 mg/kg iv) [%] | EC50 (5-HT4 receptors; ED50 = concentration to cause 50% relaxation of contraction by carbachol (1×10^-6 M), cumulative administration, read-out: Activity (-log ED50) (converted)) [µM] | Gastric-emptying promoting rate (gastric-emptying; 1 mg/kg oral) | Gastric-emptying promoting rate (gastric-emptying; 3 mg/kg oral) | MI (Motility Index) (gastric motility; 1 mg/kg iv) [%]
1 | CCCCN1[C@@H]2COC[C@H]1C[C@@H](NC(=O)c1nn(C(C)C)c3ccccc13)C2 [Example 5, N-[endo-9-(n-Butyl)-3-oxa-9-azabicyclo[3.3.1]non-7-yl]-1-isopropyl-indazole-3-carboxamide] | negative | no toxicological changes were observed | 1 | 110.7 | 124.2 | 127.5 | negative | + | negative | no mutagenicity was observed | 0.0427 | 145.8 | 208.2 | 324.9 |  |  |  | 
2 | CCOc1cc(N)c(Cl)cc1C(=O)NCC1CN(Cc2ccc(F)cc2)CCO1 (stereo not shown) [Mosapride, reference compound] |  |  |  |  |  | 103.5 |  |  |  |  |  |  |  |  | 34.7 | 125.3 | 128.1 | 151.0
